The values below come from US20240067651A1 (Biohaven Therapeutics Ltd., priority 2019, published 2024).

Data set [1] can be described thus: Plasma Stability. Type of data set: in vitro ADME, human. How it is done: Plasma stability estimates the ability of a compound to remain intact in the blood. For prodrugs that are intended to be hydrolyzed by plasma enzymes a certain level of instability in plasma indicates the compound is probably breaking down to the parent drug. A stability range of 25-75% remaining parent compound after 1 hour in plasma indicates the compound is likely breaking down to the parent drug molecule and a patient will be exposed to this parent molecule.
Assessment of plasma stability was carried out by individual incubations of drug candidates in fresh human plasma at a concentration of 1 μM for 1 hour at 37° C. After which, the samples were de-proteinized by addition of 2 volumes of acetonitrile containing 0.1% formic acid and internal standard, vortex mixed for 2 minutes and centrifuged at 4,000 rpm for 10 minutes to pellet precipitated protein. The resulting supernatant containing the drug candidates was diluted 5-fold with water containing 0.1% formic acid and submitted to LCMS/MS analysis. All determinations were done in triplicate. Plasma stability was expressed as percent of control remaining.
See Pelletier et al. ACS Med. Chem. Lett. 2018, 9, 752-756.

The nature of data set [2]: Stability in Simulated Intestinal Fluid (SIF). The data set is classed as in vitro ADME. Details: key: % parent compound remaining relative to 0-minute sample. How it is done:
(§1) Simulated gastric fluid (SGF) and Simulated intestinal fluid (SIF) stability are in vitro metrics indicating the ability of a compound to pass through the gastrointestinal tract […] or completely digested. An undigested or nearly undigested compound will usually survive gut transit long enough to be absorbed into the systemic circulation. Greater than 50% remaining intact compound at 1 hour indicates a relatively stable molecule that will likely be absorbed in the gut.
(§2) For each test compound, samples at a final concentration of 2 μg/mL are prepared in respective blank simulated gastric fluid with pepsin (pH 1.2) and simulated intestinal fluid with pancreatin (pH 6.8). All samples are incubated at 37° C. on a 150-rpm orbital shaker, and an aliquot is removed at predetermined time points (0 to 60 minutes). Samples are precipitated with three volumes of acetonitrile containing propranolol as internal standard, and centrifuged for 10 min at 2,000 g before LC-MS/MS analysis of the supernatant solutions. Percent parent compound remaining is determined relative to 0-minute incubation samples. If a sufficient number of time points are available, the degradation half-life is calculated based on the natural log of % compound remaining vs. time plot.

Data set [3] is described as follows: Stability in Simulated Gastric Fluid (SGF). Type of data set: in vitro ADME. On the set-up: key: % parent compound remaining relative to 0-minute sample. How it is done: as §1, §2
The mark [4] stands for this setting: % remaining at 1 h, human plasma, 1 μM, 37° C.
Setting [5] is: % remaining at 1 h, SIF with pancreatin pH 6.8, 2 μg/mL, 37° C.
[6] abbreviates: % remaining at 1 h, SGF with pepsin pH 1.2, 2 μg/mL, 37° C.
Setting [7] is: % remaining at 1 h in human plasma, the 15th table.
Where [8] appears, read: % remaining at 1 h in simulated intestinal fluid, the 15th table.
Where [9] appears, read: % remaining at 1 h in simulated gastric fluid, the 15th table.
Setting [10] is: bare number, unit or time not given, the 15th table Examples 204-207.

Consider `CC(C)OCCn1c(=S)[nH]c(=O)c2c1ccn2C[C@]1(C(=O)O)CCCN1C(=O)OC(C)(C)C.O=C(O)C(F)(F)F` [Example 2, trifluoroacetic acid 1-tert-butyl 2-{4-oxo-1-[2-(propan-2-yloxy)ethyl]-2-sulfanylidene-1H,2H,3H,4H,5H-pyrrolo [3,2-d]pyrimidin-5-yl}methyl(2S)-pyrrolidine-1,2-dicarboxylate], for which the “human Plasma stability” value in data set [1] (setting [4]) worked out at 73%.

On to `COc1ccc(CSc2nc(=O)c3[nH]ccc3n2CCOC(C)C)cc1` [Example 74, 2-{[(4-Methoxyphenyl)methyl]sulfanyl}-1-[2-(propan-2-yloxy)ethyl]-1H,4H,5H-pyrrolo[3,2-d]pyrimidin-4-one], for which, in data set [1] (setting [4]), the “human Plasma stability” value worked out at 97%. Moreover, the SIF in data set [2] (setting [5]) is reported as 97%. The SGF in data set [3] (setting [6]) is reported as 37%.

Consider `Cc1ccc(S(=O)(=O)n2ccc3c2c(=O)[nH]c(=S)n3CCOC(C)C)cc1C` [Example 75, 5-(3,4-Dimethylbenzenesulfonyl)-1-[2-(propan-2-yloxy)ethyl]-2-sulfanyl-1H,4H,5H-pyrrolo[3,2-d]pyrimidin-4-one], for which, in data set [1] (setting [4]), the “human Plasma stability” value worked out at 100%. Besides, the SIF in data set [2] (setting [5]) is reported as 91%. Moreover, the SGF in data set [3] (setting [6]) is reported as 99%.

For `CC(C)OCCn1c(=S)[nH]c(=O)c2c1ccn2S(C)(=O)=O` [Example 76, 5-methanesulfonyl-1-[2-(propan-2-yloxy)ethyl]-2-sulfanylidene-1H,2H,3H,4H,5H-pyrrolo[3,2-d]pyrimidin-4-one], in data set [1] (setting [4]), the “human Plasma stability” value stood at 98%. The SIF in data set [2] (setting [5]) is listed as 91%. Also, in data set [3] (setting [6]), the SGF was 96%.

Turning to `CCS(=O)(=O)n1ccc2c1c(=O)[nH]c(=S)n2CCOC(C)C` [Example 77, 5-(ethanesulfonyl)-1-[2-(propan-2-yloxy)ethyl]-2-sulfanylidene-1H,2H,3H,4H,5H-pyrrolo[3,2-d]pyrimidin-4-one], the “human Plasma stability” value in data set [1] (setting [4]) is on record as 98%. The SIF in data set [2] (setting [5]) is 96%. Also, in data set [3] (setting [6]), the SGF is given as 99%.

On to `CC(C)OCCn1c(=S)[nH]c(=O)c2c1ccn2S(=O)(=O)c1ccccc1` [Example 78, 5-(benzenesulfonyl)-1-[2-(propan-2-yloxy)ethyl]-2-sulfanylidene-1H,2H,3H,4H,5H-pyrrolo[3,2-d]pyrimidin-4-one], for which the “human Plasma stability” value in data set [1] (setting [4]) is reported as 96%. In addition, the SIF in data set [2] (setting [5]) was 80%. Besides, the SGF in data set [3] (setting [6]) is on record as 100%.

`CC(C)OCCn1c(=S)[nH]c(=O)c2c1ccn2S(=O)(=O)c1ccccc1F` [Example 79, 5-(2-fluorobenzenesulfonyl)-1-[2-(propan-2-yloxy)ethyl]-2-sulfanylidene-1H,2H,3H,4H,5H-pyrrolo[3,2-d]pyrimidin-4-one]: the “human Plasma stability” value in data set [1] (setting [4]) is recorded as 98%. For the same molecule, the SIF in data set [2] (setting [5]) was 82%. The SGF in data set [3] (setting [6]) was 92%.

Consider `Cc1ccccc1S(=O)(=O)n1ccc2c1c(=O)[nH]c(=S)n2CCOC(C)C` [Example 80, 5-(2-methylbenzenesulfonyl)-1-[2-(propan-2-yloxy)ethyl]-2-sulfanylidene-1H,2H,3H,4H,5H-pyrrolo[3,2-d]pyrimidin-4-one], for which the “human Plasma stability” value in data set [1] (setting [4]) came to 99%. In addition, the SIF in data set [2] (setting [5]) was 87%. The SGF in data set [3] (setting [6]) is 90%.

As to `CC(C)OCCn1c(=S)n2c(=O)c3c1ccn3COC(=O)CCCCCCC(=O)OC2` [Example 134, 16-[2-(Propan-2-yloxy)ethyl]-15-sulfanylidene-3,12-dioxa-1,14,16-triazatricyclo[12.5.2.0^{17,20}]henicosa-17(20),18-diene-4,11,21-trione], in data set [1] (setting [4]), the “human Plasma stability” value is 1%. Moreover, the SIF in data set [2] (setting [5]) is reported as 1%. For the same molecule, the SGF in data set [3] (setting [6]) was 99%.

`CC(C)OCCn1c2nc(=O)c3c1ccn3COC(=O)CCCCCCC(=O)OCS2` [Example 135, 22-[2-(Propan-2-yloxy)ethyl]-6,15-dioxa-17-thia-4,19,22-triazatricyclo[16.3.1.0^{4,21}]docosa-1(21),2,18-triene-7,14,20-trione]: the “human Plasma stability” value in data set [1] (setting [4]) was found to be 67%. Further, the SIF in data set [2] (setting [5]) is reported as 67%. Moreover, the SGF in data set [3] (setting [6]) is listed as 86%.

Turning to `CC(C)OCCn1c(=S)[nH]c(=O)c2c1ccn2COC(=O)CCCCCCC(=O)OCn1ccc2c1c(=O)[nH]c(=S)n2CCOC(C)C` [Example 136, 1,8-Bis({4-oxo-1-[2-(propan-2-yloxy)ethyl]-2-sulfanylidene-1H,2H,3H,4H,5H-pyrrolo[3,2-d]pyrimidin-5-yl}methyl) octanedioate], the “human Plasma stability” value in data set [1] (setting [4]) came out at 2%. Further, in data set [2] (setting [5]), the SIF was 2%. For the same molecule, the SGF in data set [3] (setting [6]) was 77%.

As for `CC(C)OCCn1c(=S)[nH]c(=O)c2c1ccn2COC(=O)CCCCCCC(=O)OCCl` [Example 137, 1-Chloromethyl 8-{4-oxo-1-[2-(propan-2-yloxy)ethyl]-2-sulfanylidene-1H,2H,3H,4H,5H-pyrrolo[3,2-d]pyrimidin-5-yl}methyl octanedioate], the “human Plasma stability” value in data set [1] (setting [4]) worked out at 1%. For the same molecule, in data set [2] (setting [5]), the SIF is listed as 56%. The SGF in data set [3] (setting [6]) was 74%.

For the molecule `CC(C)OCCn1c2nc(=O)c3c1ccn3COC(=O)CCC(=O)N1CCC(CC1)C(=O)OCS2` [Example 138, 25-[2-(propan-2-yloxy)ethyl]-3,15-dioxa-5-thia-7,13,20,25-tetraazatetra-cyclo[18.2.2.1^{6,10}.0^{9,13}]penta-cosa-6,9,11-triene-2,8,16,19-tetrone], the “human Plasma stability” value in data set [1] (setting [4]) was determined as 66% remaining. The SIF in data set [2] (setting [5]) is listed as 98% remaining. Also, in data set [3] (setting [6]), the SGF is listed as 100% remaining.

Regarding `CC(C)OCCn1c(=S)n(COC(=O)C2CCNCC2)c(=O)c2c1ccn2COC(=O)CCC(=O)O.O=C(O)C(F)(F)F` [Example 139, 4-oxo-4-({4-oxo-3-[(piperidine-4-carbonyloxy)methyl]-1-[2-(propan-2-yloxy)ethyl]-2-sulfanylidene-1H,2H,3H,4H,5H-pyrrolo[3,2-d]pyrimidin-5-yl}methoxy)butanoic acid; trifluoroacetic acid], in data set [1] (setting [4]), the “human Plasma stability” value turned out to be 8% remaining. In data set [2] (setting [5]), the SIF was 98% remaining. Also, in data set [3] (setting [6]), the SGF was 99% remaining.

Regarding `CC(C)OCCn1c(=S)n2c(=O)c3c1ccn3COC(=O)CCC(=O)N1CCC(CC1)C(=O)OC2` [Example 140, 19-[2-(propan-2-yloxy)ethyl]-20-sulfanylidene-3,13-dioxa-1,8,15,19-tetraazatetra-cyclo[13.5.2.2^{5,8}.0^{18,22}]tetra-cosa-16,18(22)-diene-4,9,12,21-tetrone], the “human Plasma stability” value in data set [1] (setting [4]) is reported as 10% remaining. The SIF in data set [2] (setting [5]) was 79% remaining. Also, the SGF in data set [3] (setting [6]) was 99% remaining.

As for `CCCNC(=O)OCSc1nc(=O)c2[nH]ccc2n1CCOC(C)C` [Example 182], the “human Plasma stability” value in data set [1] (setting [7]) is given as 94% @ 1 h. Moreover, the SIF in data set [2] (setting [8]) is 69% @ 1 h. Besides, the SGF in data set [3] (setting [9]) is given as 81% @ 1 h.

Consider `CCCNC(=O)OCSc1nc(=O)c2c(ccn2C(=O)NCCC)n1CCOC(C)C` [Example 184], for which the “human Plasma stability” value in data set [1] (setting [7]) came out at 95% @ 1 h. Moreover, the SIF in data set [2] (setting [8]) is 86% @ 1 h. For the same molecule, in data set [3] (setting [9]), the SGF is 99% @ 1 h.

As for `CCOC(=O)OCSc1nc(=O)c2[nH]ccc2n1CCOC(C)C` [Example 201], the “human Plasma stability” value in data set [1] (setting [7]) came out at 0% remaining. The SIF in data set [2] (setting [8]) is given as 43% remaining. Also, in data set [3] (setting [9]), the SGF is 100% remaining.

Regarding `CCOC(=O)OCSc1nc(=O)c2c(ccn2CSc2nc(=O)c3[nH]ccc3n2CCOC(C)C)n1CCOC(C)C` [Example 202], the “human Plasma stability” value in data set [1] (setting [7]) came to 3% remaining. The SIF in data set [2] (setting [8]) was 52% remaining. The SGF in data set [3] (setting [9]) is 45% remaining.

For the molecule `CC(C)OCCn1c(SCOC(=O)Oc2ccccc2)nc(=O)c2[nH]ccc21` [Example 205], the “human Plasma stability” value in data set [1] (setting [7]) turned out to be 2% remaining. The SIF in data set [2] (setting [10]) is on record as 10. The SGF in data set [3] (setting [10]) is 61.

For `CCCCCCCOC(=O)OCSc1nc(=O)c2c(ccn2COC(=O)OCCCCCCC)n1CCOC(C)C` [Example 220], in data set [1] (% remaining at 1 h in human plasma, the 17th table), the “human Plasma stability” value is on record as 55% remaining. In data set [2] (% remaining at 1 h in simulated intestinal fluid, the 17th table), the SIF was 5% remaining. Also, in data set [3] (% remaining at 1 h in simulated gastric fluid, the 17th table), the SGF is on record as 77% remaining.

Regarding `CC(C)OCCn1c(=S)[nH]c(=O)c2c1ccn2COC(=O)N(C)c1ccccc1Cl` [Example 250], the “human Plasma stability” value in data set [1] (human plasma, at 1 h) was 100% remaining. Further, the SIF in data set [2] (simulated intestinal fluid, at 1 h) was 93% remaining. Further, the SGF in data set [3] (simulated gastric fluid, at 1 h) is listed as 99% remaining.
